Values after ≈ are worked out from the molar mass of the structure shown. Read-outs that look alike come from different tables or passages of the source.
What was measured:
[1] = system: S. agalactiae (group B) ATCC 12400; test: MIC, microdilution method (9.1); assay type: cell-based, Streptococcus agalactiae; settings: Streptococcus agalactiae, ATCC12400, 18 h, read-out: MIC
Outline: (§1)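 Compound concentrations tested: 0.50-128 mg/L final, two-fold steps. Medium was Mueller Hinton broth; final inoculum 5×10^5 CFU/ml; incubation at 37° C. without CO2 enrichment.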

[2] = system: S. epidermidis CIP 103627; test: MIC, microdilution method (9.1); assay type: cell-based, Staphylococcus epidermidis; settings: Staphylococcus epidermidis, CIP103627, read after 18 h, read-out: MIC
Outline: as §1

[3] = system: S. epidermidis ATCC 12228; test: MIC, microdilution method (9.1); assay type: cell-based, Staphylococcus epidermidis; settings: Staphylococcus epidermidis, ATCC12228, read after 18 h, read-out: MIC
Outline: as §1

[4] = system: S. epidermidis CIP 81.55; test: MIC, microdilution method (9.1); assay type: cell-based, Staphylococcus epidermidis; settings: Staphylococcus epidermidis, CIP81, read after 18 h, read-out: MIC
Outline: as §1

[5] = system: 29 bacterial strains belonging to 17 different species; test: MIC determination, overall statements on the bacterial panel; assay type: cell-based; settings: summary of MIC results
Procedure: The microdilution method recommended by the Clinical and Laboratory Standard Institute [M07-A8, Vol. 29, No. 2] was used. The activity of indolic compounds was tested against 29 bacterial strains belonging to 17 different species and 12 different genera (Staphylococcus, Streptococcus, Enterococcus, Listeria, Bacillus, Haemophilus, Escherichia, Klebsiella, Enterobacter, Serratia, Pseudomonas, and Acinetobacter). Bacterial inocula were prepared in Mueller Hinton broth (MH2, bioMérieux, Marcy L'Etoile, France), supplemented with 10% sheep blood for fastidious species (i.e., Streptococcus pneumoniae and Haemophilus influenzae). They were dispensed in 96 well microtiter plates (5×10^5 CFU/ml of final inoculum). Indolic compounds were added to the wells as to obtain two-fold serial concentrations (0.50-128 mg/L of final concentrations). Plates were incubated at 37° C. in ambient air, or at 37° C. in 5% CO2 enriched atmosphere for fastidious species. […] Drug-free cultures served as growth controls. Cultures receiving gentamicin, ciprofloxacin or cefotaxime served as positive controls.

[6] = system: S. pyogenes (group A) CIP 104226; test: MIC, microdilution method (9.1); assay type: cell-based, Streptococcus pyogenes; settings: Streptococcus pyogenes, CIP104226, 18 h, read-out: MIC
Outline: as §1

[7] = system: Serratia marcescens CIP 103551; test: MIC, microdilution method (9.1); assay type: cell-based; settings: CIP103551, 18 h
Outline: as §1

[8] = system: Pseudomonas aeruginosa CIP 5933; test: MIC, microdilution method (9.1); assay type: cell-based; settings: CIP5933, 18 h, read-out: MIC
Outline: as §1

[9] = system: Escherichia coli ATCC 25922; test: MIC, microdilution method (9.1); assay type: cell-based; settings: ATCC25922, 18 h
Outline: as §1

[10] = system: Acinetobacter baumanii ATCC 19606; test: MIC, microdilution method (9.1); assay type: cell-based; settings: Acinetobacter baumannii, ATCC19606, 18 h, read-out: MIC
Outline: as §1

[11] = system: Bacillus subtilis CIP 5262; test: MIC, microdilution method (9.1); assay type: cell-based; settings: CIP5262, 18 h, read-out: MIC
Outline: as §1

[12] = system: S. pneumoniae ATCC 49619; test: MIC, microdilution method (9.1); assay type: cell-based; settings: Streptococcus pneumoniae, ATCC49619, 10% sheep blood, 5% CO2, 18 h
Outline: (§2)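 Broth microdilution per CLSI M07-A8 in Mueller Hinton broth, final inoculum 5×10^5 CFU/ml. Indolic compounds tested as two-fold serial dilutions, 0.50-128 mg/L final. Plates incubated at 37° C. in ambient air; fastidious species received 10% sheep blood and 5% CO2.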

[13] = system: Listeria innocua CIP 80.11; test: MIC, microdilution method (9.1); assay type: cell-based; settings: CIP80, 18 h, read-out: MIC
Outline: as §1

[14] = system: Enterobacter cloacae ATCC13047; test: MIC, microdilution method (9.1); assay type: cell-based; settings: 18 h
Outline: as §1

[15] = system: Haemophilus influenzae ATCC 49766; test: MIC, microdilution method (9.1); assay type: cell-based
Outline: as §2

[16] = system: Klebsiella pneumoniae API ATCC 35657; test: MIC, microdilution method (9.1); assay type: cell-based; settings: ATCC35657, 18 h, read-out: MIC
Outline: as §1

[17] = system: S. pneumoniae ATCC 6303; test: MIC, microdilution method (9.1); assay type: cell-based, Streptococcus pneumoniae; settings: Streptococcus pneumoniae, ATCC6303, 10% sheep blood, 5% CO2, 18 h, read-out: MIC
Outline: as §2

[18] = system: S. mitis CIP 103335; test: MIC, microdilution method (9.1); assay type: cell-based, Streptococcus mitis; settings: Streptococcus mitis, CIP103335, 18 h, read-out: MIC
Outline: as §1

[19] = system: E. faecalis ATCC 29212; test: MIC, microdilution method (9.1); assay type: cell-based, Enterococcus faecalis; settings: Enterococcus faecalis, ATCC29212, 18 h, read-out: MIC
Outline: as §1

[20] = system: E. faecium CIP 54.32; test: MIC, microdilution method (9.1); assay type: cell-based, Enterococcus faecium; settings: Enterococcus faecium, CIP54, 18 h, read-out: MIC
Outline: as §1

[21] = system: S. aureus CIP 65.6; test: MIC, microdilution method (9.1); assay type: cell-based, Staphylococcus aureus; settings: Staphylococcus aureus, CIP65, read after 18 h, read-out: MIC
Outline: as §1

[22] = system: S. aureus ATCC 6538; test: MIC, microdilution method (9.1); assay type: cell-based, Staphylococcus aureus; settings: Staphylococcus aureus, ATCC6538, read after 18 h, read-out: MIC
Outline: as §1

[23] = system: S. aureus SA-1199B; test: MIC, microdilution method (9.1); assay type: cell-based, Staphylococcus aureus; settings: Staphylococcus aureus, SA1199B, 18 h
Outline: as §1

[24] = system: S. aureus ATCC 106414 (VISA); test: MIC, microdilution method (9.1); assay type: cell-based, Staphylococcus aureus; settings: Staphylococcus aureus, read after 18 h, read-out: MIC
Outline: as §1

[25] = system: S. aureus ATCC 29213; test: MIC, microdilution method (9.1); assay type: cell-based, Staphylococcus aureus; settings: Staphylococcus aureus, ATCC29213, read after 18 h, read-out: MIC
Outline: as §1

[26] = system: S. aureus ATCC 25923; test: MIC, microdilution method (9.1); assay type: cell-based, Staphylococcus aureus; settings: Staphylococcus aureus, ATCC25923, read after 18 h, read-out: MIC
Outline: as §1

[27] = system: S. aureus ATCC 33592 (MRSA); test: MIC, microdilution method (9.1); assay type: cell-based, Staphylococcus aureus; settings: Staphylococcus aureus, read after 18 h, read-out: MIC
Outline: as §1

[28] = system: S. aureus ATCC 9144; test: MIC, microdilution method (9.1); assay type: cell-based, Staphylococcus aureus; settings: Staphylococcus aureus, ATCC9144, read after 18 h, read-out: MIC
Outline: as §1

[29] = system: S. aureus CIP 65.25 (MRSA); test: MIC, microdilution method (9.1); assay type: cell-based, Staphylococcus aureus; settings: Staphylococcus aureus, read after 18 h, read-out: MIC
Outline: as §1

[30] = system: S. aureus CIP 103428; test: MIC, microdilution method (9.1); assay type: cell-based, Staphylococcus aureus; settings: Staphylococcus aureus, CIP103428, read after 18 h, read-out: MIC
Outline: as §1

[31] = system: HCT116 (human colon tumor); test: In vitro cytotoxicity; assay type: cell-based; settings: HCT-116, HCT116, from 100 μM to 0.005 μM in DMSO, duplicate
[32] = ATCC49766, Haemophilus influenzae ATCC 49766, 10% sheep blood, 5% CO2, 18 h, read-out: MIC

Structure (SMILES) | MIC [1] | MIC [2] | MIC [3] | MIC [4] | intrinsic antibacterial activity (in words) [5] | MIC [6] | MIC [7] | MIC [8] | MIC [9] | MIC [10] | MIC [11] | MIC [12] | MIC [13] | MIC [14] | MIC [16] | MIC [17] | MIC [18] | MIC [19] | MIC [20] | MIC [21] | also measured
CC(C)(C)OC(=O)NCC(NC(=O)c1cccnc1)c1c[nH]c2ccc(Br)cc12 (centres unmarked) [Compound 10, tert-Butyl (2-(5-bromo-1H-indol-3-yl)-2-(nicotinamido)ethyl) carbamate] | 128 µg/mL (≈ 279 µM) | > 128 µg/mL | > 128 µg/mL | > 128 µg/mL | lack of intrinsic antibacterial activity | 128 µg/mL (≈ 279 µM) | > 128 µg/mL | > 128 µg/mL | > 128 µg/mL | > 128 µg/mL | 128 µg/mL (≈ 279 µM) | 128 µg/mL (≈ 279 µM) | > 128 µg/mL | > 128 µg/mL | > 128 µg/mL | 128 µg/mL (≈ 279 µM) | > 128 µg/mL | > 128 µg/mL | > 128 µg/mL | > 128 µg/mL | MIC [15, 32]: > 128 µg/mL; MIC [22]: 64 µg/mL (≈ 139 µM); MIC [23]: 64 µg/mL (≈ 139 µM); MIC [24]: > 128 µg/mL; MIC [25]: 128 µg/mL (≈ 279 µM); MIC [26]: > 128 µg/mL; MIC [27]: > 128 µg/mL; MIC [28]: > 128 µg/mL; MIC [29]: > 128 µg/mL; MIC [30]: 64 µg/mL (≈ 139 µM)
CC(C)(C)OC(=O)NCC(NC(=O)C(F)(F)F)c1c[nH]c2ccc(Br)cc12 (centres unmarked) [Compound 9, tert-Butyl (2-(5-bromo-1H-indol-3-yl)-2-(2,2,2-trifluoroacetamido)ethyl)carbamate] | > 128 µg/mL | > 128 µg/mL | > 128 µg/mL | > 128 µg/mL | lack of intrinsic antibacterial activity | > 128 µg/mL | > 128 µg/mL | > 128 µg/mL | > 128 µg/mL | > 128 µg/mL | 128 µg/mL (≈ 284 µM) | > 128 µg/mL | > 128 µg/mL | > 128 µg/mL | > 128 µg/mL | > 128 µg/mL | > 128 µg/mL | > 128 µg/mL | > 128 µg/mL | 128 µg/mL (≈ 284 µM) | MIC ([15]; Haemophilus influenzae, ATCC49766, 18 h): > 128 µg/mL; MIC [22]: 128 µg/mL (≈ 284 µM); MIC [23]: 128 µg/mL (≈ 284 µM); MIC [24]: 128 µg/mL (≈ 284 µM); MIC [25]: 64 µg/mL (≈ 142 µM); MIC [26]: > 128 µg/mL; MIC [27]: 128 µg/mL (≈ 284 µM); MIC [28]: > 128 µg/mL; MIC [29]: 128 µg/mL (≈ 284 µM); MIC [30]: 128 µg/mL (≈ 284 µM)
CC(C)(C)OC(=O)NCC(NC(=O)c1ccccc1)c1c[nH]c2ccc(Br)cc12 (centres unmarked) [Compound 8, t-Butyl (2-benzamido-2-(5-bromo-1H-indol-3-yl)ethyl) carbamate] | > 128 µg/mL | > 128 µg/mL | > 128 µg/mL | > 128 µg/mL | lack of intrinsic antibacterial activity | > 128 µg/mL | > 128 µg/mL | > 128 µg/mL | > 128 µg/mL | > 128 µg/mL | > 128 µg/mL | > 128 µg/mL | > 128 µg/mL | > 128 µg/mL | > 128 µg/mL | > 128 µg/mL | > 128 µg/mL | > 128 µg/mL | > 128 µg/mL | > 128 µg/mL | IC50 ([31]; first value): 6.14 µM; IC50 ([31]; second value): 7.33 µM; MIC [15, 32]: > 128 µg/mL; MIC [22]: > 128 µg/mL; MIC [23]: > 128 µg/mL; MIC [24]: > 128 µg/mL; MIC [25]: > 128 µg/mL; MIC [26]: > 128 µg/mL; MIC [27]: > 128 µg/mL; MIC [28]: > 128 µg/mL; MIC [29]: > 128 µg/mL; MIC [30]: > 128 µg/mL

From patent US9676715B2, “Bis-indolic derivatives, a process for preparing the same and their uses as a drug” (UNIVERSITE JOSEPH FOURIER, priority 2011, dated 2017)
